Data: patent US20260109721A1, “IONIZABLE CATIONIC LIPIDS INCORPORATING SILICON: SYNTHESIS AND LNP FORMULATION” (priority 2023, published 2026)

What was measured:
HeLa cells = assay: Transfection efficiency with Luciferase (SecNLuc) mRNA, Nano-Glo assay (Method A); format: cell-based; conditions: Luc mRNA, 24 h, luminescence; for Transfection 10 ng mRNA: 10 ng mRNA/well; for Transfection 50 ng mRNA: 50 ng mRNA/well; for Transfection 100 ng mRNA: 100 ng mRNA/well
Protocol: (§1) The synthesized lipids were tested in term of in vitro transfection efficacy and toxicity on HeLa cells. In order to perform the mentioned biological tests, appropriate LNPs had to be formulated from the synthesized lipids. The formulation technique was different in Method A and B. The particle size, polydispersity index (PDI) and zeta potential of resulting LNPs were determined by means of Dynamic Light Scattering technique (DLS). Prior to biological testing the encapsulation efficiency (EE) of the loaded LNPs was determined by using RiboGreen RNA assay. In case of Method A Luc mRNA while in case of Method B GFP mRNA was transfected into the cells. In parallel with the transfection experiments, toxicity of the investigated LNPs was determined, in case of Method A resazurin assay while in case of Method B MTT assay was used. Additionally, the toxicity of the lipids was investigated on HepG2 cells and IC50 values were determined.
• 1. Prepare mRNA solution by adding 100 ng mRNA (SecNLuc, #P009024, RiboPro) to 5 μl Opti-MEM • multiply by number of wells, include different concentrations and add 10% extra • a standard set-up we use is 100 ng-50 ng-10 ng mRNA/well in triplicate, which would need […] mRNA (includes 10% extra)
• 2. (If applicable) Prepare different concentrations in Opti-MEM (for instance 100/50/10 ng). • 3. Add 10 μl to each well and mix carefully by pipetting. • 4. Mix by swirling the plate horizontally at modest speed. Reverse in direction 3 times. • 5. Incubate for 24 hours (incubator).
This protocol is applied to measure luciferase activity for secreted NanoLuc and is based on the protocol by Promega (Nano-Glo® Luciferase Assay System #N1110-1150). The protocol is designed for a 384-wells plate, but volumes can be changed accordingly for other plates.
• 1. Plate cells (HeLa) in 96-well plate, grow until 80% confluent and transfect with SecNanoLuc mRNA and incubate for the desired period (24 h). • 2. After incubation, the translated protein is accumulated in the medium. Transfer medium to a new plate or tubes. • 3. Transfer 12 μl of each sample to a black-walled, clear-bottom 384-well plate • Black-walled plates are important to prevent shine-through of luminescence from other wells; alternatively, multiple wells between samples can be left empty. • 4. Set-up plate reader • 5. Prepare the desired amount of Nano-Glo® Luciferase Assay Reagent by combining one volume of Nano-Glo® Luciferase Assay Substrate with 50 volumes of Nano-Glo® Luciferase Assay Buffer: • a. composition: 100 mM MES pH 6; 1 mM EDTA; […]; 150 mM KCl; 1 mM DTT; 35 mM Thiourea; • b. briefly spin tubes containing substrate in a microcentrifuge before use. • 6. Add and mix (by pipetting) 12 μl Nano-Glo® Luciferase Assay Reagent per well • Wait approximately 3 minutes before measuring luminescence. […] Measure luminescence in plate reader using standard protocol luciferase (this includes mixing sample in plate reader)

[1] = LNP size, PDI and zeta potential by Dynamic Light Scattering (Method A); format: physicochemical; conditions: LNP formulated with the lipid, DLS
Protocol: as §1
• 1. If needed, prepare stock solutions by solving known amounts of lipid powder into an appropriate solvent. The recommended solvent is ethanol and the recommended concentration is typically in the range 10-50 mM. Higher concentrations are preferred to allow flexibility on mRNA-LNP concentration. • 2. Remove the lipid stock solutions from the −20° C. freezer. For long-term storage, −80° C. is used. • 3. Check the vials for precipitation, DOPE (CAS #4004-05-1) (20 mM) and DSPE-PEG (CAS #474922-26-4) (5 mM) may need a 5-30 minute incubation step at 37° C. with intermittent vortexing to resuspend all contents. […] As a last resort, lipids may be heated to 50° C. to resuspend, time should be kept as short as possible to prevent oxidation or other modifying or degradative processes. • 4. Mix the lipids by vortexing for 2 minutes. • 5. […] Cooling the solution prevent excessive evaporation of ethanol or similar solvents upon opening. • 6. Meanwhile, thaw the RNA samples, including the latest SecNLuc control, by inserting the frozen tube in a room temperature aluminium block. • 7. Prepare for each LNP-formulation with identical mRNA component, an RNA master mix according to Table 1 below in a fresh tube. Use of a master mix allows more precise comparison of lipid formulations relative to each other. Split the master mix over a number of fresh tubes equal to the number of samples+controls. Each tube contains 375 μl of mRNA in 10 mM Citrate pH 4.0. • 8. Prepare for each LNP formulation with identical lipid composition a Lipid master mix according to Table 1 below in a fresh tube, exclude the lipid of interest. Use of a master mix allows more precise comparison of the novel ionizable lipid relative to each other. Split the master mix over a number of fresh tubes equal to the number of samples+controls. Each tube contains 65.5 μl of lipid master mix. • 9. Add the ionizable lipid of interest to the equally divide lipid master mix. Mix well by pipetting up and down. Label the tube according to the ionizable lipid used. • 10. Power on the L1 FM (L1 Formulation Machine uses 2 high-speed syringe pumps to mix lipids in organic solvents with mRNA in acidic aquous solution to generate well-defined LNPs. The microfluidic mixing chip involves a dean-type structure performing the high-efficiency mixing at a total flow rate (TFR) of around 12 ml/min at a 3:1 mixing ratio) and allow it to do a calibration of motor positions.
• 18. Fill a fresh syringe (C) through a blunt 18G stainless steel needle with the previously prepared RNA mixture of step 6. The volume should be approximately 85% of total formulation volume+25 μl (dead-volume). Make sure to remove all air bubbles by tapping. • 19. Fill a fresh syringe (D) through a blunt 18G stainless steel needle with the Lipid master mix. The volume should be approximately […] of total formulation volume+25 μl (dead-volume). Again, Make sure to remove all bubbles. • 20. Attach the syringes in the correct orientation, syringe A on the left and syringe B on the right • 21.

SMILES | Transfection 10 ng mRNA (HeLa cells) | Transfection 50 ng mRNA (HeLa cells) | Transfection 100 ng mRNA (HeLa cells) | PDI [1] | Size (nm) [1] [nm] | Zeta potential (mV) [1] [mV]
CCCCC/C=C\C/C=C\CCCCCCCCOC(CCCCCCC/C=C\C/C=C\CCCCC)O[Si](C)(C)O[Si](C)(C)CCCCCCN(CCO)CCO (stereo not drawn) [Example 82, (24Z,27Z)-14-((8Z,11Z)-heptadeca-8,11-dien-1-yl)-3-(2-hydroxyethyl)-10,10,12,12-tetramethyl-11,13,15-trioxa-3-aza-10,12-disilatritriaconta-24,27-dien-1-ol] | 1.16E+03 | 7.26E+03 | 3.59E+04 | 0.26 | 97.5 | −16.31
CCCCCCCC/C=C\CCCCCCCC(OCCC(C)CCCC(C)CCCC(C)CCCC(C)C)O[Si](C)(C)OCCCCCCN(CCO)CCO (stereo not drawn) [Example 75, (Z)-13-(heptadec-8-en-1-yl)-3-(2-hydroxyethyl)-11,11,17,21,25,29-hexamethyl-10,12,14-trioxa-3-aza-11-silatriacontan-1-ol] | 1.68E+03 | 2.82E+04 | 1.07E+05 | 0.18 | 76.35 | −13.40
CCCCC/C=C\C/C=C\CCCCCCCCO[Si](C)(C)OC(CCCCCCC/C=C\C/C=C\CCCCC)OCCCN(C)C (stereo not drawn) [Example 80, (17Z,20Z)-5-((8Z,11Z)-heptadeca-8,11-dien-1-yl)-N,N,7,7-tetramethyl-4,6,8-trioxa-7-silahexacosa-17,20-dien-1-amine] | 1.90E+01 | 1.25E+02 | 5.41E+02 | 0.11 | 90.19 | −26.51
CCCCCCCC/C=C\CCCCCCCC(OCCCCCCCCCCCCCCCC)O[Si](C)(C)OCCCCCCN(CCO)CCO (stereo not drawn) [Example 42, (Z)-13-(heptadec-8-en-1-yl)-3-(2-hydroxyethyl)-11,11-dimethyl-10,12,14-trioxa-3-aza-11-silatriacontan-1-ol] | 6.16E+04 | 1.32E+06 | 5.53E+06 | 0.059 | 129.0 | −8.408
CCCCCCCCCCCCCCCCOC(CCCCCCCCCCCCCCC)O[Si](C)(C)OCCCCCCN(CCO)CCO (stereo not drawn) [Example 49, 3-(2-hydroxyethyl)-11,11-dimethyl-13-pentadecyl-10,12,14-trioxa-3-aza-11-silatriacontan-1-ol] | 1.35E+05 | 6.74E+05 | 1.20E+06 | 0.396 | 171.9 | −12.77
CCCCCCCC/C=C\CCCCCCCCOC(=O)C(C)(C)CC(OCCCCCCCC/C=C\CCCCCCCC)O[Si](C)(C)OCCCCCCN1CCCCC1CO (stereo not drawn) [Example 89, (Z)-octadec-9-en-1-yl 4-((((6-(2-(hydroxymethyl)piperidin-1-yl)hexyl)oxy)dimethylsilyl)oxy)-2,2-dimethyl-4-(((Z)-octadec-9-en-1-yl)oxy)butanoate] | 1.10E+06 | 7.47E+06 | 1.54E+07 | 0.12 | 97.17 | −10.93
CCCCC/C=C\C/C=C\CCCCCCCCOC(CCCCCCC/C=C\C/C=C\CCCCC)O[Si](C)(C)OCCCCCCN1CCN(CCO)CC1 (stereo not drawn) [Example 58, 2-(4-((20Z,23Z)-10-((8Z,11Z)-heptadeca-8,11-dien-1-yl)-8,8-dimethyl-7,9,11-trioxa-8-silanonacosa-20,23-dien-1-yl)piperazin-1-yl)ethan-1-ol] | 3.85E+02 | 3.92E+03 | 7.51E+03 | 0.011 | 160.6 | −11.86
